Usually TD50 stands for the 50% point of the dose-response relation for the toxic effect studied. Broadly, the ED50 is the dose that gives a 50% effect, or the effect in half of the subjects.

Calls of active or inactive are those of the source. No cut-off for these calls is given here.

In one series the test system is Mus musculus. The experiment in a line: Anticonvulsant activity in Mus musculus Kunming (mouse) assessed as protection against maximal electroshock-induced seizure at 100 mg/kg, ip administered 30 min prior to testing. The series is classed as functional, organism-based. Also noted: dose 100 mg/kg.
Conditions: not given
(In general: The maximal electroshock test induces tonic seizures with an electrical stimulus.)
For `Clc1cccc(COc2cccc3c2cnc2ncnn23)c1`, the result was inactive.

Take `CCCCCCCOc1cccc2c1cnc1ncnn12`: the result was inactive. For the compound `Brc1ccccc1COc1cccc2c1cnc1ncnn12`, the result was inactive. Turning to `Clc1ccc(COc2cccc3c2cnc2ncnn23)cc1`, the result was inactive.

With `CCCCCCOc1cccc2c1cnc1ncnn12`, the result was inactive. Turning to `Cc1ccc(COc2cccc3c2cnc2ncnn23)cc1`, the result was inactive. Consider `Fc1ccccc1COc1cccc2c1cnc1ncnn12`, for which the outcome was inactive. With `Fc1ccc(COc2cccc3c2cnc2ncnn23)cc1`, the result was inactive.

In the case of `CCCCOc1cccc2c1cnc1ncnn12`, the outcome was inactive. As to `CCCCCCCCOc1cccc2c1cnc1ncnn12`, the outcome was inactive. For `Clc1ccc(COc2cccc3c2cnc2ncnn23)c(Cl)c1`, the result was inactive. Same read-out and setting: in the case of `N#Cc1ccc(COc2cccc3c2cnc2ncnn23)cc1` it was “inactive”. Consider `CCCCCOc1cccc2c1cnc1ncnn12`, for which the outcome was Active.

On to `Fc1cccc(COc2cccc3c2cnc2ncnn23)c1`, for which the result was inactive. The same measure, in the same setting: as for `CCCCCCCCCCOc1cccc2c1cnc1ncnn12`, the entry is “inactive”; as for `N#Cc1ccccc1COc1cccc2c1cnc1ncnn12`, “inactive”.

For `c1ccc(COc2cccc3c2cnc2ncnn23)cc1`, the result was Active. For the compound `COc1ccc(COc2cccc3c2cnc2ncnn23)cc1`, the result was inactive.

For the compound `Clc1ccccc1COc1cccc2c1cnc1ncnn12`, the outcome was inactive.

System in a further series: not listed separately
The experiment in a line: Neurotoxicity against ip dosed Mus musculus Kunming (mouse) assessed as inability to maintain equilibrium on rod measured for 1 min by rota rod test. The note with it: in vivo. The series is classed as toxicity, organism-based. (The rotarod test checks motor coordination on a turning rod.)
Take `NC(=O)N1c2ccccc2C=Cc2ccccc21` [CARBAMAZEPINE]: the TD50 at 1 min was 76.1 mg/kg.

With `c1ccc(COc2cccc3c2cnc2ncnn23)cc1`, the TD50 at 1 min came out at 710 mg/kg.

Another series relates to Mus musculus. The experiment in a line: Anticonvulsant activity in ip dosed Mus musculus Kunming (mouse) assessed as protection against maximal electroshock-induced seizure administered 30 min prior to testing. The series is classed as functional.
Conditions: not given
`NC(=O)N1c2ccccc2C=Cc2ccccc21` [CARBAMAZEPINE]: the ED50 stood at 11.8 mg/kg.

As for `c1ccc(COc2cccc3c2cnc2ncnn23)cc1`, the 50% effective dose (ED50) was determined as 78.9 mg/kg.

System in the next series: not listed separately
The series is described as follows: Protective index, ratio of TD50 for neurotoxicity to ED50 for anticonvulsant activity in Mus musculus Kunming (mouse). The series is classed as toxicity, organism-based. The note with it: in vivo, read-out: Ratio TD50/ED50.
Take `c1ccc(COc2cccc3c2cnc2ncnn23)cc1`: the selectivity ratio is 9.

These data come from ChEMBL document CHEMBL3045370, “Design and synthesis of 6-alkyoxyl[1,2,4]triazolo[1,5-a]quinazoline derivatives with anticonvulsant activity” (Med Chem Res, 2012).
